{"source": "paper PMC5384001", "about": "(Scientific Reports, 2017)", "key": {"GluD2-Lc-(HS1)GluN1": {"target": "T1, GluD2-Lc-(HS1)GluN1 (Rattus norvegicus, UniProt Q63226, A654T/D542Y/S544G/Y543Q)", "T1 construct": "the function of full-length receptors as well, we introduced them into the GluD2 lurcher mutant (GluD2-Lc); expressed in transfected cells; host or cells: Xenopus laevis oocytes injected with cRNA", "T1 sequence (Q63226 24-1007 D542Y/Y543Q/S544G/A654T)": "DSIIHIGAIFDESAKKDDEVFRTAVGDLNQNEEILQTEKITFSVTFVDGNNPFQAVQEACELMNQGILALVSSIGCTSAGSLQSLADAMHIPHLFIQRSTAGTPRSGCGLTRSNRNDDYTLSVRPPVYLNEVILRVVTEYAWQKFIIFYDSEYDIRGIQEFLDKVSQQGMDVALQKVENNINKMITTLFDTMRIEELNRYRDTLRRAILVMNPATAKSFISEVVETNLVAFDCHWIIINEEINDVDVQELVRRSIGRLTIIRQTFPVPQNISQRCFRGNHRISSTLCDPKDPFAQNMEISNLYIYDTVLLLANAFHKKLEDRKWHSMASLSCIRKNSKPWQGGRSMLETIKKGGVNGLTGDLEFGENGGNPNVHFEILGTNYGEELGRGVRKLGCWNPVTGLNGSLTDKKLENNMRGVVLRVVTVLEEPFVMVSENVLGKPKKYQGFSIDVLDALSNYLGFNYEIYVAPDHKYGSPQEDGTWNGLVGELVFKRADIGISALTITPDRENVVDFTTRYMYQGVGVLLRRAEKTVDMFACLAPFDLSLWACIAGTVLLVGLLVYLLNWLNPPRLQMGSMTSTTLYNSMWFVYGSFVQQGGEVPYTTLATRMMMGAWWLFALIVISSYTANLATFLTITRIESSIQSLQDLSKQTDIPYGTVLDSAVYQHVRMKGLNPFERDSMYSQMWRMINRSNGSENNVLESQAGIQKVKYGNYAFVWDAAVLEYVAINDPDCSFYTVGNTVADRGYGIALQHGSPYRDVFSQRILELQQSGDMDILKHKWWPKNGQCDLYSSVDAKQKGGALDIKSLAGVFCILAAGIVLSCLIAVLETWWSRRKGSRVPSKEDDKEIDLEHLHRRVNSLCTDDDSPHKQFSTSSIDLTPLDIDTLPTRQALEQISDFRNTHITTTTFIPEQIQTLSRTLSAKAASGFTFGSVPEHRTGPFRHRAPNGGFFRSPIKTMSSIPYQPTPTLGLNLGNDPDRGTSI", "experiment": "Two-electrode voltage clamp in Xenopus oocytes, inhibition of spontaneous currents", "assay_type": "cell-based", "conditions": "fraction of spontaneous current inhibited by saturating D-serine"}, "GluN1 LBD": {"target": "GluN1 LBD", "design": "method as in PMID 12805203", "conditions": "cited from earlier work"}, "GluN3B LBD": {"target": "GluN3B LBD", "design": "method as in PMID 18636091", "conditions": "cited from earlier work"}, "parallel fiber EPSCs": {"test_system": "parallel fiber EPSCs", "conditions": "inhibitory effect on parallel fiber EPSCs; read-out: apparent EC50; cited from earlier work"}}, "note": "Where “and” joins values, the source holds several entries; their conditions need not be identical. Equal entries are not always repeated.", "data": [{"smiles": "N[C@H](CO)C(=O)O", "note": "[D-serine]", "values": [{"measurement": "D-serine efficacy Mean ± SEM", "setting": "GluD2-Lc-(HS1)GluN1", "result": "29% and 29.1 ± 1.1%"}, {"measurement": "Kd", "setting": "GluN1 LBD", "result": 7, "unit": "µM"}, {"measurement": "Kd", "setting": "GluN3B LBD", "result": 0.163, "unit": "µM"}, {"measurement": "EC50", "setting": "parallel fiber EPSCs", "result": 147, "unit": "µM"}]}]}
